Literature values in patent US5296224A, “Kava-kava extract, process for the production thereof and use thereof” (Dr. Wilmar Schwabe GmbH & Co., priority 1990, dated 1994).

How the values were obtained:
skin = details: Shulgin 1973
[1] = administered as pure substance; Kretschmer, MMW 4/1970
[2] = 21° C.

SMILES | skin-specific secondary effects (skin) | effective daily dose [1] | maximum solubility in water [2]
COc1ccc(/C=C/C(=O)c2c(O)cc(OC)cc2OC)cc1 [flavokawin A] | skin-specific secondary effects | – | –
COC1=CC(=O)O[C@@H](/C=C/c2ccccc2)C1 [kawain] | – | about 200 mg | 2.2 mg/100 ml water
COc1cc(O)c(C(=O)/C=C/c2ccccc2)c(OC)c1 [flavokawin B] | skin-specific secondary effects | – | –
